Test results published in patent US20250287947A1, “BIOCIDES AND ADHESIVE BINDING THEREOF” (EBERHARD KARLS UNIVERSITÄT TÜBINGEN MEDIZINISCHE FAKULTÄT, priority 2022, published 2025).
In brackets after ≈: the same amount, converted by molar mass. Read-outs that look alike come from different tables or passages of the source.

Key:
[1] = Influence of temperature on the state of matter of Py-C12 free base at different concentrations in water (Example 4); assay type: physicochemical; set-up: key: X: liquid; o: solid
Protocol: 5-N-carboxamido-2-pyrrolidone-N-n-dodecyl propane-1,3-diamine (Py-C12) free base at concentrations of 1% (w/v), 2.5% (w/V), 5% (w/V), 10% (w/V), 20% (w/), 30% (W/), 40% (w/V) were incubated at temperatures between 36° C. and 50° C. (see table 4).

[2] = Interactions between salt concentration, temperature and pH on the state of matter of Py-C12 (Example 3); assay type: physicochemical; set-up: key: X: liquid; o: solid; conditions: 5% w/v
Protocol: […] The samples were combined with NaCl solutions using concentrations between 0 and 3 M in water and subsequently incubated at temperatures between 24° C. and 45° C.

[3] = Modulation of the state of matter by pH shift using CO2 (Example 8); assay type: physicochemical
Source text: 1% (w/v) and 5% (w/v) 5-N-carboxamido-2-pyrrolidone-N-n-dodecyl propane-1,3-diamine (Py-C12) free base solutions in water were gassed with carbon dioxide to reduce the pH from 9.5 to 7. […] After degassing of the CO2-gassed solutions, Py-C12 precipitates due to the increasing pH in a time dependent manner (see FIG. 3, right panel).

[4] = test system: β-galactosidase-expressing E. coli strain; experiment: Wash resistance and biocidal activity of Py-C12 treated polyester fabric (Example 16); assay type: cell-based; conditions: treated with 5% (w/v) free base, E. coli 3 days at 37° C.
Protocol: (§1) In a first step, 5% (w/v) Py-C12 free base in water was warmed to 50° C. to obtain a liquid solution. After incubation with the Py-C12 solution, the samples were cooled to room temperature upon which the liquid Py-C12 was converted into a solid phase and thus immobilized to the material. After drying, samples were washed with water at room temperature 10, 20, and 30 times for 15 minutes each time. Thereafter, all samples were inoculated with a β-galactosidase-expressing E. coli strain and then incubated for 3 days at 37° C.

[5] = Influence of pH on state of matter of Py-C12 at 20° C. (Example 1); assay type: physicochemical; set-up: key to state of matter: X: liquid; o: solid; conditions: for solubility in water / state of matter: 1% (w/v); for state of matter: 1% w/v, 20° C.
Source text: 1% (w/v) 5-N-carboxamido-2-pyrrolidone-N-n-dodecyl propane-1,3-diamine (Py-C12) free base was adjusted with HCl or NaOH to pH values between 3.0 and 10.0.

[6] = Modulation of the state of matter by temperature shift (Example 10); assay type: physicochemical; conditions: 1% and 5% (w/v) free base in water
[7] = test system: β-galactosidase-expressing E. coli strain; experiment: Wash resistance and biocidal activity of Py-C12 treated cotton fabric (Example 18); assay type: cell-based; conditions: treated with 1% (w/v) free base, E. coli 3 days at 37° C.
Protocol: as §1, with “1%” for “5%”, “10” for “10, 20,”

[8] = free base; i.e. 0.0033% (w/v) at ph 9.5; cited from earlier work
[9] = washed 10 times with water 15 min
[10] = washed 30 times with water 15 min

SMILES: CCCCCCCCCCCCNCCCNC(=O)C1CCC(=O)N1 (stereo not shown) [Py-C12, 5-N-carboxamido-2-pyrrolidone-N′-n-dodecyl propane-1,3-diamine]
- state of matter ([1]; free base 1% (w/v) in water, 36° C.): o
- state of matter ([1]; free base 1% (w/v) in water, 38° C.): o
- state of matter ([1]; free base 1% (w/v) in water, 40° C.): X
- state of matter ([1]; free base 1% (w/v) in water, 42° C.): X
- state of matter ([1]; free base 1% (w/v) in water, 44° C.): X
- state of matter ([1]; free base 1% (w/v) in water, 46° C.): X
- state of matter ([1]; free base 1% (w/v) in water, 48° C.): X
- state of matter ([1]; free base 1% (w/v) in water, 50° C.): X
- state of matter ([1]; free base 2.5% (w/v) in water, 36° C.): o
- state of matter ([1]; free base 2.5% (w/v) in water, 38° C.): o
- state of matter ([1]; free base 2.5% (w/v) in water, 40° C.): X
- state of matter ([1]; free base 2.5% (w/v) in water, 42° C.): X
- state of matter ([1]; free base 2.5% (w/v) in water, 44° C.): X
- state of matter ([1]; free base 2.5% (w/v) in water, 46° C.): X
- state of matter ([1]; free base 2.5% (w/v) in water, 48° C.): X
- state of matter ([1]; free base 2.5% (w/v) in water, 50° C.): X
- state of matter ([1]; free base 5% (w/v) in water, 36° C.): o
- state of matter ([1]; free base 5% (w/v) in water, 38° C.): o
- state of matter ([1]; free base 5% (w/v) in water, 40° C.): X
- state of matter ([1]; free base 5% (w/v) in water, 42° C.): X
- state of matter ([1]; free base 5% (w/v) in water, 44° C.): X
- state of matter ([1]; free base 5% (w/v) in water, 46° C.): X
- state of matter ([1]; free base 5% (w/v) in water, 48° C.): X
- state of matter ([1]; free base 5% (w/v) in water, 50° C.): X
- state of matter ([1]; free base 10% (w/v) in water, 36° C.): o
- state of matter ([1]; free base 10% (w/v) in water, 38° C.): o
- state of matter ([1]; free base 10% (w/v) in water, 40° C.): X
- state of matter ([1]; free base 10% (w/v) in water, 42° C.): X
- state of matter ([1]; free base 10% (w/v) in water, 44° C.): X
- state of matter ([1]; free base 10% (w/v) in water, 46° C.): X
- state of matter ([1]; free base 10% (w/v) in water, 48° C.): X
- state of matter ([1]; free base 10% (w/v) in water, 50° C.): X
- state of matter ([1]; free base 20% (w/v) in water, 36° C.): o
- state of matter ([1]; free base 20% (w/v) in water, 38° C.): o
- state of matter ([1]; free base 20% (w/v) in water, 40° C.): o
- state of matter ([1]; free base 20% (w/v) in water, 42° C.): o
- state of matter ([1]; free base 20% (w/v) in water, 44° C.): X
- state of matter ([1]; free base 20% (w/v) in water, 46° C.): X
- state of matter ([1]; free base 20% (w/v) in water, 48° C.): X
- state of matter ([1]; free base 20% (w/v) in water, 50° C.): X
- state of matter ([1]; free base 30% (w/v) in water, 36° C.): o
- state of matter ([1]; free base 30% (w/v) in water, 38° C.): o
- state of matter ([1]; free base 30% (w/v) in water, 40° C.): o
- state of matter ([1]; free base 30% (w/v) in water, 42° C.): o
- state of matter ([1]; free base 30% (w/v) in water, 44° C.): X
- state of matter ([1]; free base 30% (w/v) in water, 46° C.): X
- state of matter ([1]; free base 30% (w/v) in water, 48° C.): X
- state of matter ([1]; free base 30% (w/v) in water, 50° C.): X
- state of matter ([1]; free base 40% (w/v) in water, 36° C.): o
- state of matter ([1]; free base 40% (w/v) in water, 38° C.): o
- state of matter ([1]; free base 40% (w/v) in water, 40° C.): o
- state of matter ([1]; free base 40% (w/v) in water, 42° C.): o
- state of matter ([1]; free base 40% (w/v) in water, 44° C.): X
- state of matter ([1]; free base 40% (w/v) in water, 46° C.): X
- state of matter ([1]; free base 40% (w/v) in water, 48° C.): X
- state of matter ([1]; free base 40% (w/v) in water, 50° C.): X
- state of matter ([2]; pH 4.0, 28° C., 0.5M NaCl): X
- state of matter ([2]; pH 4.0, 28° C., 1.0M NaCl): X
- state of matter ([2]; pH 4.0, 28° C., 1.5M NaCl): X
- state of matter ([2]; pH 4.0, 28° C., 2.0M NaCl): X
- state of matter ([2]; pH 4.0, 28° C., 2.5M NaCl): o
- state of matter ([2]; pH 4.0, 28° C., 3.0M NaCl): o
- state of matter ([2]; pH 4.0, 28° C., no NaCl): X
- state of matter ([2]; pH 9.0, 24 °C, 0.5M NaCl): o
- state of matter ([2]; pH 9.0, 24 °C, 1.0M NaCl): o
- state of matter ([2]; pH 9.0, 24 °C, 1.5M NaCl): o
- state of matter ([2]; pH 9.0, 24 °C, 2.0M NaCl): o
- state of matter ([2]; pH 9.0, 24 °C, 2.5M NaCl): o
- state of matter ([2]; pH 9.0, 24 °C, 3.0M NaCl): o
- state of matter ([2]; pH 9.0, 24 °C, no NaCl): o
- solubility in water ([3]; 1% and 5% (w/v) free base gassed with CO2, pH from 9.5 to 7, room temperature): completely soluble
- state of matter after degassing ([3]; 1% and 5% (w/v), after degassing of CO2, increasing pH, time dependent): precipitates
- bacterial growth on treated polyester fabric after washing [4, 9]: unstained
- bacterial growth on treated polyester fabric after washing ([4]; washed 20 times with water 15 min): unstained
- bacterial growth on treated polyester fabric after washing [4, 10]: Blue coloured bacteria
- solubility in water / state of matter ([5]; pH values </=7.8, room temperature): completely soluble
- solubility in water / state of matter ([5]; pH values >/=8): solid substance
- state of matter ([5]; pH 3.0): X
- state of matter ([5]; pH 4.0): X
- state of matter ([5]; pH 5.0): X
- state of matter ([5]; pH 6.0): X
- state of matter ([5]; pH 7.0): X
- state of matter ([5]; pH 7.8): X
- state of matter ([5]; pH 8.0): o
- state of matter ([5]; pH 9.0): o
- state of matter ([5]; pH 10.0): o
- solubility in water ([6]; 50° C.): completely soluble
- state of matter ([6]; room temperature): readily precipitated
- bacterial growth on treated cotton fabric after washing [7, 9]: doesn't show any bacterial growth
- bacterial growth on treated cotton fabric after washing [7, 10]: few spots
- solubility in water [8]: 33 µg/mL (≈ 93.3 µM)
